Data set [1] is described as follows: Octanol-water apparent partition coefficient, logD of the compound at pH 7.4. It counts as physicochemical.
The test system of data set [2] is Liver. Put plainly: Mean transit time of the compound in healthy Wistar rat perfused liver at 6 mM after 10 mins. The settings on record: 6000 µM. It counts as ADME, tissue-based.
Data set [3] deals with Liver. Put plainly: Mean transit time of the compound in perfused liver of high-fat emulsion-induced nonalcoholic steatohepatitis Wistar rat at 6 mM after 10 mins. Format: ADME, tissue-based. The following applies: 6000 µM.
Data set [4] concerns Liver. Description: Drug distribution in perfused liver of high-fat emulsion-induced nonalcoholic steatohepatitis Wistar rat assessed as equilibrium amount ratio charactering fast binding process at 6 mM after 10 mins. It counts as ADME, tissue-based. The following applies: in vivo, 6000 µM.
The subject of data set [5] is Liver. Put plainly: Drug distribution in healthy Wistar rat perfused liver assessed as equilibrium amount ratio charactering slow binding process at 6 mM after 10 mins. The following applies: in vivo, 6000 µM. Format: ADME, tissue-based.
In data set [6] the test system is Liver. Description: Drug distribution in perfused liver of high-fat emulsion-induced nonalcoholic steatohepatitis Wistar rat assessed as equilibrium amount ratio charactering slow binding process at 6 mM after 10 mins. Format: ADME, tissue-based. The following applies: in vivo, 6000 µM.
For data set [7], the system named is Liver. Description: Apparent distribution ratio of the compound in healthy Wistar rat perfused liver at 6 mM after 10 mins. It counts as ADME, tissue-based. The settings on record: 6000 µM.
The subject of data set [8] is Liver. Description: Apparent distribution ratio of the compound in perfused liver of high-fat emulsion-induced nonalcoholic steatohepatitis Wistar rat at 6 mM after 10 mins. The following applies: 6000 µM. It counts as ADME, tissue-based.
The test system of data set [9] is Liver. Description: Drug distribution in healthy Wistar rat perfused liver assessed as equilibrium amount ratio charactering fast binding process at 6 mM after 10 mins. Format: ADME, tissue-based. The following applies: in vivo, 6000 µM.
Data set [10] in a line: in vitro. The following applies: Wistar, rat, perfused liver.
Description: Extraction ratio of the compound in healthy Wistar rat perfused liver at 6 mM after 10 mins
A short description of data set [11]: in vitro. The following applies: Wistar, rat, perfused liver. The source holds these as a separate data set.
Description: Extraction ratio of the compound in perfused liver of high-fat emulsion-induced nonalcoholic steatohepatitis Wistar rat at 6 mM after 10 mins
The subject of data set [12] is Liver. Put plainly: Mean transit time of the compound in healthy Wistar rat perfused liver at 8 mM after 10 mins. It counts as ADME, tissue-based. The settings on record: 8000 µM.
Data set [13] relates to Liver. Put plainly: Mean transit time of the compound in perfused liver of high-fat emulsion-induced nonalcoholic steatohepatitis Wistar rat at 8 mM after 10 mins. Format: ADME, tissue-based. The settings on record: 8000 µM.
Data set [14] relates to Liver. Put plainly: Drug distribution in perfused liver of high-fat emulsion-induced nonalcoholic steatohepatitis Wistar rat assessed as equilibrium amount ratio charactering fast binding process at 8 mM after 10 mins. Format: ADME, tissue-based. The following applies: in vivo, 8000 µM.
Data set [15] concerns Liver. Description: Drug distribution in healthy Wistar rat perfused liver assessed as equilibrium amount ratio charactering slow binding process at 8 mM after 10 mins. It counts as ADME, tissue-based. The settings on record: in vivo, 8000 µM.
Data set [16] relates to Liver. Description: Drug distribution in perfused liver of high-fat emulsion-induced nonalcoholic steatohepatitis Wistar rat assessed as equilibrium amount ratio charactering slow binding process at 8 mM after 10 mins. Format: ADME, tissue-based. The following applies: in vivo, 8000 µM.
Data set [17] relates to Liver. Put plainly: Apparent distribution ratio of the compound in healthy Wistar rat perfused liver at 8 mM after 10 mins. It counts as ADME, tissue-based. The following applies: 8000 µM.
Data set [18] has as its system Liver. Description: Apparent distribution ratio of the compound in perfused liver of high-fat emulsion-induced nonalcoholic steatohepatitis Wistar rat at 8 mM after 10 mins. It counts as ADME, tissue-based. The settings on record: 8000 µM.
Data set [19] relates to Liver. Description: Drug distribution in healthy Wistar rat perfused liver assessed as equilibrium amount ratio charactering fast binding process at 8 mM after 10 mins. Format: ADME, tissue-based. The settings on record: in vivo, 8000 µM.
A short description of data set [20]: Dissociation constant, pKa of the compound. Format: physicochemical.
Data set [21] is described as follows: Extraction ratio of the compound in healthy Wistar rat perfused liver at 4 mM after 10 mins. It counts as ADME, tissue-based. The settings on record: read-out: ERH.
The nature of data set [22]: Extraction ratio of the compound in perfused liver of high-fat emulsion-induced nonalcoholic steatohepatitis Wistar rat at 4 mM after 10 mins. It counts as ADME, tissue-based. The settings on record: read-out: ERH.
In data set [23] the test system is Liver. Description: Mean transit time of the compound in healthy Wistar rat perfused liver at 4 mM after 10 mins. It counts as ADME, tissue-based. The following applies: 4000 µM.
The subject of data set [24] is Liver. Put plainly: Mean transit time of the compound in perfused liver of high-fat emulsion-induced nonalcoholic steatohepatitis Wistar rat at 4 mM after 10 mins. Format: ADME, tissue-based. The following applies: 4000 µM.
Data set [25] concerns Liver. Put plainly: Apparent distribution ratio of the compound in healthy Wistar rat perfused liver at 4 mM after 10 mins. Format: ADME, tissue-based. The following applies: 4000 µM.
Data set [26] has as its system Liver. Description: Apparent distribution ratio of the compound in perfused liver of high-fat emulsion-induced nonalcoholic steatohepatitis Wistar rat at 4 mM after 10 mins. The settings on record: 4000 µM. It counts as ADME, tissue-based.
Data set [27] deals with Liver. Put plainly: Mean transit time of the compound in healthy Wistar rat perfused liver at 3 mM after 10 mins. It counts as ADME, tissue-based. The settings on record: 3000 µM.
For data set [28], the system named is Liver. Put plainly: Mean transit time of the compound in perfused liver of high-fat emulsion-induced nonalcoholic steatohepatitis Wistar rat at 3 mM after 10 mins. The settings on record: 3000 µM. It counts as ADME, tissue-based.
Data set [29] relates to Liver. Put plainly: Drug distribution in healthy Wistar rat perfused liver assessed as equilibrium amount ratio charactering slow binding process at 3 mM after 10 mins. Format: ADME, tissue-based. The following applies: in vivo, 3000 µM.
In data set [30] the test system is Liver. Put plainly: Apparent distribution ratio of the compound in perfused liver of high-fat emulsion-induced nonalcoholic steatohepatitis Wistar rat at 3 mM after 10 mins. The following applies: 3000 µM. Format: ADME, tissue-based.

Each structure is given as a SMILES string.

In the case of `CC(CCc1ccccc1)NCC(O)c1ccc(O)c(C(N)=O)c1` (stereo unspecified) [LABETALOL], the LogD7.4 in data set [1] is reported as 2.69. Besides, the MTT in the data set with Liver [2] stood at 29.1 s; in the data set with Liver [3], 33.98 s. The K worked out at 1.94 in the data set with Liver [4]; 6.78 with Liver [5]; 11.81 in the data set with Liver [6]; 6.45 in the data set on Liver [7]; 10.94 with Liver [8]; 1.08 with Liver [9]. For the same compound, the hepatic extraction ratio at 10 min, 6000 µM in the data set “in vitro [10]” amounted to 0.86; in “in vitro [11]” it was 0.79.
Regarding `CC(C)NCC(O)COc1cccc2ccccc12` (stereo unspecified) [PROPRANOLOL], the figures for the MTT with Liver [12] and with Liver [13] were 58.14 s and 70.99 s, respectively. Further, the K in the data set with Liver [14] stood at 0.38; in the data set on Liver [15], 13.59; in the data set on Liver [16], 5.35; in the data set on Liver [17], 10.76; with Liver [18], 16.31; in the data set on Liver [19], 1.96.
Broadly, the pKa is the pH at which an ionisable group is half protonated. A higher pKa goes with a weaker acid or stronger base. `Cc1cc(=O)n(-c2ccccc2)n1C` [ANTIPYRINE]: in [1] (read-out: LogD7.4), the logD came to 0.33. For the same compound, in data set [20], the pKa turned out to be 1.45. The figures for the hepatic extraction ratio at 10 min, 4000 µM in data set [21] and in data set [22] were 0.16 and 0.08, respectively. The MTT with Liver [23] was 46.46 s; with Liver [24], 64.12 s. In addition, the K in the data set with Liver [25] came out at 2.67; in the data set with Liver [26], 4.5.
Consider `CC(C)NCC(O)COc1ccc(CC(N)=O)cc1` (stereo unspecified) [ATENOLOL], for which the MTT amounted to 13.12 s in the data set with Liver [23] and 18.63 s in the data set on Liver [24]. Also, the K came to 9.9 with Liver [25] and 12.51 in the data set with Liver [26].
As to `COCCc1ccc(OCC(O)CNC(C)C)cc1` (stereo unspecified) [METOPROLOL], in [1], the LogD7.4 came to 1.79. In addition, the MTT is 60.26 s in the data set on Liver [27] and 67.43 s in the data set with Liver [28]. Also, the results for the K in the data set with Liver [29] and with Liver [30] were 2.27 and 11.97, respectively.

(Values after ChEMBL document CHEMBL3526036, “Hepatic pharmacokinetics of cationic drugs in a high-fat emulsion-induced rat model of nonalcoholic steatohepatitis” (Drug Metab Dispos, 2011).)
